The record followed here is patent publication US20140155445A1, “Compounds and Methods for Treating Cancer and Diseases of the Central Nervous System” (Osta Biotechnologies Inc., priority 2007, published 2014).

The structures appear in SMILES notation. Entries after “also recorded” stand apart in the source; their conditions may differ. Where only a bound is given, the exact number is not on record here.

Test [1] concerns human pancreatic tumor cells. Put plainly: Cell proliferation, [3H]thymidine incorporation, human pancreatic tumor cells. Format: cell-based. As to conditions: 6.5 μM, 18 h. (Incorporation of labelled thymidine or its analogues reports DNA synthesis.)
The target in test [2] is T1, HO-2 (rat brain) (Rattus norvegicus, UniProt P23711).
T1 construct: brain microsomes were used as a source of HO-2; from tissue; host or cells: brain microsomal fraction of adult male Sprague-Dawley rats
T1 sequence (P23711 1-315): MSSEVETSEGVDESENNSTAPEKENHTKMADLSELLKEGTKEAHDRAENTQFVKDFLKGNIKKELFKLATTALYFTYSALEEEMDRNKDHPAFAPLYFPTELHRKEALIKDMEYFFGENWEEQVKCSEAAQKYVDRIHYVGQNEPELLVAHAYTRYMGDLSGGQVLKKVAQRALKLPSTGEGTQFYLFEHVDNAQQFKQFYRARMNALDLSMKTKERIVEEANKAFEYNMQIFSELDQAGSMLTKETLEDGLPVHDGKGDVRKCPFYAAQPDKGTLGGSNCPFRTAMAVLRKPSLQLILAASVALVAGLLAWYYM
Put plainly: HO enzymatic activity in rat brain microsomal fraction (CO formed from methemalbumin, gas chromatography). Format: biochemical. To be noted: rat brain microsomes; average ± standard deviation of replicate experiments; hydrochloride; read-out: IC50 HO-2 (rat brain)/μM.

Test [3] relates to SKMEL 28-V+ cells (human melanoma). Put plainly: Melanoma model SKMEL-V+ in SCID mice (combination study). Format: in vivo. As to conditions: QC-56 60 mg/kg/ip; Dacarbazine 55 mg/kg. The protocol: SKMEL 28-V+ cells (human melanoma). These cells were originally from the ATCC and then engineered to overexpress VEGF. […] The cells were tested to be free of mycoplasma.
Control groups received the vehicle alone.

Test [4] has as its system APPswe/PS1dE9 mice. Put plainly: Behavioral studies (maze, fear conditioning) in APPswe/PS1dE9 mice. Format: in vivo, mouse. The procedure:
The experiments were performed at Pennington Biomedical Research Centre (PBRC) of Lousiana State University, Baton Rouge, Lousiana and were approved by the Institutional Animal Care and Use Committee (IACUC) of PBRC.
The APPswe/PS1dE9 mice were generated against a C57/BL6J background by breeding either +/+ males or females with −/− females or males, respectively.
Memantine (10 mg/kg) and both doses of QC-199 (15 mg/kg & 30 mg/kg) were prepared in batches and frozen for later use. Each compound was weighed and dissolved in injectable sterile saline solution. Memantine was prepared at a concentration of 1 mg/ml, the 15 mg/kg dose of QC-199 at a volume of 15 mg/10 ml, and the 30 mg/kg dose of QC-199 at a volume of 30 mg/10 ml. The compounds were prepared in this volume so that the mice could easily be injected based on their body weight, e.g., a 35 gram mouse was injected with 0.35 ml dosing solution.
Memantine and QC-199 dosing solutions were administered to mice via i.p. injections. The mice were weighed 3 times/week and were injected with a volume that matched their body weight. The mice were injected daily and the injection located was alternated each day to avoid potential complications from injection in the same location on a daily basis.
After reaching their respective treatment duration, the wild type and APP/PS1 double transgenic mice were run through the STM and fear conditioning. The STM consisted of one day of straight run training (running down an alley from the start box to the goal box). This phase was implemented to establish the contingency that moving forward would provide escape into the dark and dry goal box. The mice were required to reach a criterion of completing the straight run in 15 sec or less on 7 out of 9 trials over a maximum of 15 trials. […] The following day each mouse was administered 15 trials in the STM with approximately 7-10 min between each trial where they were placed into a holding cage with a towel. The latency to reach the goal box and the number of errors committed were the dependent measures of learning. However, in our experience, errors committed is much more indicative of learning and is reported for this project. Pictures of the straight run (A) and maze (B) are shown in FIG. 42, along with a schematic (C) of the maze indicating the correct path. The data from the maze was collapsed into blocks of 5 trials for data summary and presentation.
Med Associates Inc.'s MED-VFC-NIR-M NIR Video Fear Conditioning System for Mouse, Pavlovian fear conditioning was conducted after the STM. On Day 1 the mice were placed in Context 1 and given 5 tone+shock pairings. On day 2 the mice were placed back into Context 1 and their freezing response to being placed back into the original context where fear conditioning occurred was measured. Freezing is operationally defined as the cessation of all movement except that required for respiration. Freezing was measured over 10 minutes, and data were summarized in 1-min intervals. On day 3 the mice were placed into a novel context (Context 2) for 10 min. […] For the final 5 min, the tone paired with shock during fear conditioning was presented. Again, the data was summarized in 1-min intervals.
Maze data was analyzed by two-way ANOVAs to determine treatment group effects for both errors and run time after the data was collapsed into three 5 trial blocks. Planned comparisons of transgenic mice treated with saline with each of the drug treatments, memantine or QC-199 at 15 mg/kg/day and 30 mg/kg/day were conducted to evaluate group differences in the maze at each trial block and both tone and contextual fear conditioning tests. The critical a level was set at 0.05 for all statistical tests. The values in FIGS. 46A-46C represent the means±S.E.M. The data was analyzed using the SPSS statistical program version 11.0. […]

Consider `Brc1ccc(CCC2(Cn3ccnc3)OCCO2)cc1.Cl` [QC-56, 1-((2-(2-(4-Bromophenyl)ethyl)-1,3-dioxolan-2-yl)methyl)-1H-imidazole hydrochloride], for which the “effect of hHO-1 transfection on 3H-thymidine incorporation” value in test [1] (hHO-1-transfected human pancreatic tumor cells) is “significantly attenuated”. Also, the “3H-thymidine incorporation vs untreated cells” value in test [1] (non-transfected human pancreatic tumor cells, hydrochloride) is given as “significantly attenuated; also recorded: marked reduction”. Besides, in test [2], the IC50 is ≥ 100 µM. In test [3], the “inhibition of tumor growth compared to vehicle alone” value is “approximately 42%” and the “tumor size on the day of sacrifice” value is reported as 1.03±0.16 cm^3.

`Brc1ccc(CCCCn2ccnc2)cc1.Cl` [QC-199, 1-[4-(4-bromophenyl)butyl]-1H-imidazole hydrochloride]: the “effect on maze errors and contextual fear conditioning (summary)” value in test [4] (Memantine, QC-199 15 mg/kg and 30 mg/kg, dtg mice) is listed as “positive effect”. Further, the “maze errors vs saline-treated APP/PS1 mice” value in test [4] (QC-199 30 mg/kg/day i.p., trend at Trial Block 3 (p=0.052)) is on record as “did not exhibit improved performance at any of the Trial Blocks”. Moreover, the “contextual fear conditioning (freezing) vs saline-treated APP/PS1 mice” value in test [4] (QC-199 15 and 30 mg/kg/day, Memantine 10 mg/kg, Time Blocks 1-4) is reported as “none reached significance”.
